Where two headings read alike, the source gives them in different places.
Assays:
Format in all cases: cell-based
Rat α6β4β3 = target: T1, Rat α6β4β3 (Rattus norvegicus, UniProt P12391+P12392+P43143); assay: Voltage clamp of Xenopus oocytes expressing α6β4β3 nAChR
T1 construct: oocytes expressing the complete wild-type α6 subunits were tested; expressed in transfected cells; host or cells: Xenopus laevis oocytes injected with subunit cRNAs; clones from Dr. Jim Boulter (UCLA)
Description: (§1) Mature (>9 cm) female Xenopus laevis African frogs (NASCO, Ft. Atkinson, Wis.) were used as a source of oocytes. Prior to surgery, frogs were anesthetized by placing the animal in a 1.5 g/l solution of MS222 (3-aminobenzoic acid ethyl ester) for 30 minutes. Oocytes were removed from an incision made in the abdomen.
(§2) In order to remove the follicular cell layer, harvested oocytes were treated with 1.25 mg/ml collagenase from Worthington Biochemical Corporation (Freehold, N.J.) for 2 hours at room temperature in calcium-free Barth's solution (88 mM NaCl, 10 mM HEPES pH 7.6, 0.33 mM MgSO4, 0.1 mg/ml gentamicin sulfate). Subsequently, stage 5 oocytes were isolated and injected with 50 nl (5-20 ng) each of the appropriate subunit cRNAs. Recordings were made 2 to 15 days after injection.
Rat neuronal nAChR clones and mouse muscle nAChR cDNA clones were used. The wild-type clones were obtained from Dr. Jim Boulter (UCLA). The rat α6/3 (Dowell et al. J Neurosci, 2003, 23:8445-8452) clone was obtained from Michael McIntosh (University of Utah) and expressed in Xenopus oocytes in combinations with rat β2 and β3. […] The TM2 domain is understood to line the pore of the channel, with alpha helix structure. The 7′ position may actually be directed away from the actual pore lining, but this residue is highly conserved in all of the nAChR. It is valine in all of them except α9 (isoleucine) and β1, where it is alanine. The TM2 mutation in the α6/3 chimera was corrected by using QuickChange (Stratagene) according to their protocols. The corrected α6/3 chimera sequence was confirmed by restriction diagnostics and by automated fluorescent sequencing (University of Florida core facility). The corrected clone was expressed as above in Xenopus oocytes with β2 and β3 and compared to the wild-type α3 co-expressed with β2 and β3.
(§3) After linearization and purification of cloned cDNAs, RNA transcripts were prepared in vitro using the appropriate mMessage mMachine kit from Ambion Inc. (Austin, Tex.).
Electrophysiology. The majority of experiments were conducted using OpusXpress 6000A (Axon Instruments, Union City Calif.). OpusXpress is an integrated system that provides automated impalement and voltage clamp of up to eight oocytes in parallel. Cells were automatically perfused with bath solution, and agonist solutions were delivered from a 96-well plate. Both the voltage and current electrodes were filled with 3 M KCl. The agonist solutions were applied via disposable tips, which eliminated any possibility of cross-contamination. Drug applications alternated between ACh controls and experimental applications. Flow rates were set at 2 ml/min for experiments with α7 receptors and 4 ml/min for other subtypes. Cells were voltage-clamped at a holding potential of −60 mV. Data were collected at 50 Hz and filtered at 20 Hz. Agonist applications were 12 seconds in duration followed by 181-second washout periods for α7 receptors and 8 seconds with 241-second wash periods for other subtypes. For some experiments, particularly under conditions where residual inhibition precluded making repeated measurements from single cells (see below), manual oocyte recordings were made as previously described (Papke and Papke Br J of Pharmacol, 2002, 137:49-61). In brief, Warner Instruments (Hamden, Conn.) OC-725C oocyte amplifiers were used, and data were acquired with a minidigi or digidata 1200A with pClamp9 software (Axon Instruments). Sampling rates were between 10 and 20 Hz and the data were filtered at 6 Hz. […]

Human α3β2 = target: T2, Human α3β2 (Homo sapiens, UniProt P17787+P32297); assay: Voltage clamp of Xenopus oocytes expressing human α3β2 nAChR
T2 construct: expressed in transfected cells; host or cells: Xenopus laevis oocytes injected with subunit cRNAs
Description: as §1, §2, §3
Electrophysiology. The majority of experiments were conducted using OpusXpress 6000A (Axon Instruments, Union City Calif.). OpusXpress is an integrated system that provides automated impalement and voltage clamp of up to eight oocytes in parallel. Cells were automatically perfused with bath solution, and agonist solutions were delivered from a 96-well plate. Both the voltage and current electrodes were filled with 3 M KCl. The agonist solutions were applied via disposable tips, which eliminated any possibility of cross-contamination. Drug applications alternated between ACh controls and experimental applications. Flow rates were set at 2 ml/min for experiments with α7 receptors and 4 ml/min for other subtypes. Cells were voltage-clamped at a holding potential of −60 mV. Data were collected at 50 Hz and filtered at 20 Hz. Agonist applications were 12 seconds in duration followed by 181-second washout periods for α7 receptors and 8 seconds with 241-second wash periods for other subtypes. For some experiments, particularly under conditions where residual inhibition precluded making repeated measurements from single cells (see below), manual oocyte recordings were made as previously described (Papke and Papke Br J of Pharmacol, 2002, 137:49-61). In brief, Warner Instruments (Hamden, Conn.) OC-725C oocyte amplifiers were used, and data were acquired with a minidigi or digidata 1200A with pClamp9 software (Axon Instruments). Sampling rates were between 10 and 20 Hz and the data were filtered at 6 Hz. Cells were voltage clamped at a holding potential of −50 mV.
Experimental protocols and data analysis. Each oocyte received two initial control applications of ACh, an experimental drug application (or co-application of ACh and TMPH), and then follow-up control application(s) of ACh. The control ACh concentrations for α1β1γδ, α3β4, α4β2, α3β2, α3β2α5, α3β2β3, α6/3β2β3 α6β4β3 and α7, receptors were 30 μM, 100 μM, 10 μM, 30 μM, 1 μM 100 μM 100 μM 100 μM and 300 μM, respectively. In other experiments (Papke et al. J. Neurochem., 2000, 75:204-216; Papke and Papke Br J of Pharmacol, 2002, 137:49-61) these concentrations were determined to be the EC74, EC15, EC22, EC17, EC40, EC70, EC55, EC70 and EC100, respectively. […]
Responses to experimental drug applications were calculated relative to the preceding ACh control responses in order to normalize the data, compensating for the varying levels of channel expression among the oocytes. […]

[1] = target: T3, mouse muscle-type (α1β1εδ) nAChR (Mus musculus, UniProt P02716+P04756+P09690+P20782); assay: Voltage clamp of Xenopus oocytes expressing muscle-type nAChR
T3 construct: expressed in transfected cells; host or cells: Xenopus laevis oocytes injected with subunit cRNAs; clones from Dr. Jim Boulter (UCLA)

[2] = inhibition still present after 5-minute wash, read-out: IC50 (recovery)

T1 sequence (P43143 31-493): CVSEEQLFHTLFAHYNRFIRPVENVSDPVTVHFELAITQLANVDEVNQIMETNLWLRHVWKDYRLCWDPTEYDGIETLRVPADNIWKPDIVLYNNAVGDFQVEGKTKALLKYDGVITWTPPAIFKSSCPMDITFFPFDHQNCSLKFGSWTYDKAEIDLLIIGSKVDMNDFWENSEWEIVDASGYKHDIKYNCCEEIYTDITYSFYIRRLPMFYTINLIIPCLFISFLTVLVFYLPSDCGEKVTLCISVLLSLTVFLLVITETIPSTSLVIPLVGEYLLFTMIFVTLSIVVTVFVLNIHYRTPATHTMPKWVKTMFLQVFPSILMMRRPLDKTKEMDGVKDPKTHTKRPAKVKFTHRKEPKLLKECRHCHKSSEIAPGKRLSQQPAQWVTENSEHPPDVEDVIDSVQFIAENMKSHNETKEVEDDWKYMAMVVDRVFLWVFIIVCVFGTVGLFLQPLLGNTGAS
T1 sequence (P12392 21-495): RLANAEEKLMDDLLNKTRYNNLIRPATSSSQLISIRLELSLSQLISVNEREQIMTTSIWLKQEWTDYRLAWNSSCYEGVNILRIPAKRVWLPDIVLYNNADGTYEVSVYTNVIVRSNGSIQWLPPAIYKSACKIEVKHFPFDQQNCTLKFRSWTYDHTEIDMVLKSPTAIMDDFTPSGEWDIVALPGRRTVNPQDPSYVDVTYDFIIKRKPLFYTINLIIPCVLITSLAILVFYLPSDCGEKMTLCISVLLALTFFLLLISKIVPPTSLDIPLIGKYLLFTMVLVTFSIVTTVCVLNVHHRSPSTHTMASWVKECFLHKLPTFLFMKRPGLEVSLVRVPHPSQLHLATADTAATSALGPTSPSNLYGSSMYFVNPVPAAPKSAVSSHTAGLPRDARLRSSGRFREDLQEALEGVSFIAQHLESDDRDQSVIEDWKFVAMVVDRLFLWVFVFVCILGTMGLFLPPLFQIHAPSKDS
T1 sequence (P12391 31-464): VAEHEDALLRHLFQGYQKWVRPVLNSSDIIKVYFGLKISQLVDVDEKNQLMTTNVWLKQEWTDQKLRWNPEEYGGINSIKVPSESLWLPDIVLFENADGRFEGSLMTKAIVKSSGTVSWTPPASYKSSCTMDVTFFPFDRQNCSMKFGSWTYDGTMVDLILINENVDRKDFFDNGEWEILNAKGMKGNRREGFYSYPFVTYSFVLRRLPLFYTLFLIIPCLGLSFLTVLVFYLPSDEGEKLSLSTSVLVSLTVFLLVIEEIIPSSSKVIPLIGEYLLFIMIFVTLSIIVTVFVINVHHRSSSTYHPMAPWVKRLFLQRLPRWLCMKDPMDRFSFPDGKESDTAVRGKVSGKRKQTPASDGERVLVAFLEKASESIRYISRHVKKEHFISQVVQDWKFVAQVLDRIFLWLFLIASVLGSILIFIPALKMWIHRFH
T3 sequence (P04756 21-457): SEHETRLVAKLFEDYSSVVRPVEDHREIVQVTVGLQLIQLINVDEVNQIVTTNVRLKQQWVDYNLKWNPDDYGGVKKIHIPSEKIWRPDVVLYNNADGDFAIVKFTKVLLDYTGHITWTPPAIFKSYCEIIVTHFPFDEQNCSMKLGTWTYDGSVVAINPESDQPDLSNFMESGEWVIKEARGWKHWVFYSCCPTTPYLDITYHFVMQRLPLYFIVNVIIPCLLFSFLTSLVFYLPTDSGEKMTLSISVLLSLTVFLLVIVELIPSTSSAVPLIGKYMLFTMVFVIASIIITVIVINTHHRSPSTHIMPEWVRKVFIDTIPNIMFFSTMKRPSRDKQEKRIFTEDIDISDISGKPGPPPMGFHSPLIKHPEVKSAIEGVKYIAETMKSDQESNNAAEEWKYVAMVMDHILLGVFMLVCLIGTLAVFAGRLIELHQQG
T3 sequence (P09690 24-501): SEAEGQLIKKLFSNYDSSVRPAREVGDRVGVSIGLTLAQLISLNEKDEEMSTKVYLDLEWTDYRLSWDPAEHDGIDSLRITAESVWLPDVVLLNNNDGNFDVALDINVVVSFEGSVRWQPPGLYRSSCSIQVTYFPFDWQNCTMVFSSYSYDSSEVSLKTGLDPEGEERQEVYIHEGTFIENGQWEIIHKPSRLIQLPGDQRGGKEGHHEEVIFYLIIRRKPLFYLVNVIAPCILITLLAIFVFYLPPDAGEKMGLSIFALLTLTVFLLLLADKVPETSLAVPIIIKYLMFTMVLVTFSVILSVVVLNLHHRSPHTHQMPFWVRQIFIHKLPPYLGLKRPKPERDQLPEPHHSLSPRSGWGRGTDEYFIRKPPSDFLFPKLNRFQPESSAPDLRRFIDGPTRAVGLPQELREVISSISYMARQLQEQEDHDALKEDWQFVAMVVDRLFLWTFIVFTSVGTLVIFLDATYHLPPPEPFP
T3 sequence (P20782 21-493): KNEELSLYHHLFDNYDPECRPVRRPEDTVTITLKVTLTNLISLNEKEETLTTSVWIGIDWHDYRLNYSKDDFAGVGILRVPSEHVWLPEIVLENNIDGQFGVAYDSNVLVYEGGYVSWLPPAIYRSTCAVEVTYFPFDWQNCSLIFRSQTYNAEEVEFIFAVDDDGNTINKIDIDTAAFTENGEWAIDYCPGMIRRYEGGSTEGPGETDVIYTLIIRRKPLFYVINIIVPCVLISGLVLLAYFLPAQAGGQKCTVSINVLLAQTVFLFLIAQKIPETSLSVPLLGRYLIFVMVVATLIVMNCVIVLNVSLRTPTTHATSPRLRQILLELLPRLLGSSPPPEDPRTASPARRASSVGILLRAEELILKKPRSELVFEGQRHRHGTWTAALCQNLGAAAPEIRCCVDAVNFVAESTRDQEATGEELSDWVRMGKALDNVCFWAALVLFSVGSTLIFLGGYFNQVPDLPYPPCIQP
T3 sequence (P02716 25-520): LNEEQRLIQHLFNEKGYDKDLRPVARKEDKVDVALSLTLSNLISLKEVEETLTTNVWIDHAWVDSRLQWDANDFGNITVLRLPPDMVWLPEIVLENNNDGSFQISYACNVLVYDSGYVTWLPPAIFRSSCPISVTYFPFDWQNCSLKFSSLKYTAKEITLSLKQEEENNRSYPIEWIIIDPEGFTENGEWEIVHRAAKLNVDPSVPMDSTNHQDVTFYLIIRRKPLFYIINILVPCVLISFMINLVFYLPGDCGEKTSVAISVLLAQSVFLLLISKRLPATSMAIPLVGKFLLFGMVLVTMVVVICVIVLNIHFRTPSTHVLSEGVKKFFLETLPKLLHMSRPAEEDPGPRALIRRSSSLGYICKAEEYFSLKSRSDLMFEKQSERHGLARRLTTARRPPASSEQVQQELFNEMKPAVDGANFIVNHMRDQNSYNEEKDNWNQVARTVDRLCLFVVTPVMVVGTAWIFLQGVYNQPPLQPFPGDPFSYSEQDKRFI
T2 sequence (P32297 32-505): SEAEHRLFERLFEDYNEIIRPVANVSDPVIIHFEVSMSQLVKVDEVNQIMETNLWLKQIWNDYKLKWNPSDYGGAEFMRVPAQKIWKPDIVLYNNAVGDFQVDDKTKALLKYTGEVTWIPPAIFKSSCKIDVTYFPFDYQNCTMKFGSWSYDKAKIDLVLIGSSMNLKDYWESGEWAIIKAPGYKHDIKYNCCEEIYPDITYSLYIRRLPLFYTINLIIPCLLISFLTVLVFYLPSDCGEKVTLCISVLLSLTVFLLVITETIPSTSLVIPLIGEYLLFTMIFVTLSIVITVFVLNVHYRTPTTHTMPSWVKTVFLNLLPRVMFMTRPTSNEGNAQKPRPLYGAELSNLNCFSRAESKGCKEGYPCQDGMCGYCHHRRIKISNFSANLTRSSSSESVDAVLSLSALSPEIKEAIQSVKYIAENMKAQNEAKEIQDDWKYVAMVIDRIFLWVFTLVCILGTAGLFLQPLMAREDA
T2 sequence (P17787 26-502): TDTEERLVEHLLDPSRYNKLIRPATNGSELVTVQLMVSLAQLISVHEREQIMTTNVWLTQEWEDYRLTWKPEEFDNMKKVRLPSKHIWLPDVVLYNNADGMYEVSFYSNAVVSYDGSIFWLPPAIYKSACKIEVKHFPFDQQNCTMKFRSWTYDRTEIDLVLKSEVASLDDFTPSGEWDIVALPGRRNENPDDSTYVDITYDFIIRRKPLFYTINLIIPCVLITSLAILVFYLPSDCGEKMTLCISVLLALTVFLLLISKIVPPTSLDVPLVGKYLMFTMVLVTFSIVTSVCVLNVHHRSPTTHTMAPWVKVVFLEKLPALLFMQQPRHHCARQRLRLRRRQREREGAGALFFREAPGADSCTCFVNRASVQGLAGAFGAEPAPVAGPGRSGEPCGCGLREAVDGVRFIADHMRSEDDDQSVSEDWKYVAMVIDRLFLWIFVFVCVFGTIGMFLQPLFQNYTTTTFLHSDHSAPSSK

## CCCCCCC(=O)OC1CC(C)(C)NC(C)(C)C1 [TMPH, 2,2,6,6-tetramethylpiperidin-4-yl heptanoate]
Rat α6β4β3; decrease in net charge, 100 μM ACh co-applied with TMPH, read-out: IC50 (area)
  IC50: 18.3 ± 4.9 µM
Rat α6β4β3; decrease in peak current amplitude, 100 μM ACh co-applied with TMPH, read-out: IC50 (peak)
  IC50: 11 ± 4.4 µM
Rat α6β4β3; [2]
  IC50: 1700 ± 420 µM
Rat α6β4β3; ratio
  IC50 net charge/IC50 peak: 1.7
  IC50 recovery/IC50 net charge: 93
Human α3β2; decrease in net charge, 30 μM ACh co-applied with TMPH, read-out: IC50 (area)
  IC50: 0.46 ± 0.17 µM
Human α3β2; decrease in peak current amplitude, 30 μM ACh co-applied with TMPH, read-out: IC50 (peak)
  IC50: 3.7 ± 1.2 µM
Human α3β2; [2]
  IC50: 0.4 ± 0.12 µM
Human α3β2; ratio
  IC50 net charge/IC50 peak: 0.12
  IC50 recovery/IC50 net charge: 0.87
[1]; after a 5-minute wash
  reversibility of inhibition: readily reversible
[1]; decrease in net charge, ACh co-applied with TMPH, read-out: IC50 (area)
  IC50: 0.39 ± 0.05 µM
[1]; decrease in peak current amplitude, ACh co-applied with TMPH, read-out: IC50 (peak)
  IC50: 0.276 ± 0.02 µM
[1]; [2]
  IC50: 27 ± 5.5 µM
[1]; ratio
  IC50 net charge/IC50 peak: 1.4
  IC50 recovery/IC50 net charge: 69

Reference: patent publication US7531555B2, “Compositions and methods for selective inhibition of nicotine acetylcholine receptors” (University of Florida Research Foundation, Inc., priority 2003, dated 2009)
